Test results from the supplement of paper PMC10307832.

Legend:
Test in all cases: relative viability (nuclei count vs DMSO), 5 days (fraction); higher = more cells survive
NCI-H661 = test system: NCI-H661
Procedure, shortened: (§1)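 Medians of duplicate plates are given as relative viability. That measure is the nuclei count in treated wells divided by the count in vehicle wells. Counts were taken on 4× images of lung cancer cell lines in 1536-well plates, 5 days after pin-tool dosing the day after seeding with one drug alone or a fixed anchor-drug dose plus five library-drug doses (not always all listed) in √10 steps.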

NCI-H650 = test system: NCI-H650
Procedure, shortened: as §1

A-427 = test system: A-427
Procedure, shortened: as §1

NCI-H1944 = test system: NCI-H1944
Procedure, shortened: as §1

LC-2-ad = test system: LC-2-ad
Procedure, shortened: as §1

BEN = test system: BEN
Procedure, shortened: as §1

HCC-15 = test system: HCC-15
Procedure, shortened: as §1

NCI-H1650 = test system: NCI-H1650
Procedure, shortened: as §1

NCI-H1915 = test system: NCI-H1915
Procedure, shortened: as §1

NCI-H1651 = test system: NCI-H1651
Procedure, shortened: as §1

NCI-H1792 = test system: NCI-H1792
Procedure, shortened: as §1

201T = test system: 201T
Procedure, shortened: as §1

NCI-H460 = test system: NCI-H460
Procedure, shortened: as §1

H3255 = test system: H3255
Procedure, shortened: as §1

CAL-12T = test system: CAL-12T
Procedure, shortened: as §1

NCI-H520 = test system: NCI-H520
Procedure, shortened: as §1

LCLC-97TM1 = test system: LCLC-97TM1
Procedure, shortened: as §1

NCI-H2023 = test system: NCI-H2023
Procedure, shortened: as §1

NCI-H441 = test system: NCI-H441
Procedure, shortened: as §1

PC-3 [JPC-3] = test system: PC-3 [JPC-3]
Procedure, shortened: as §1

NCI-H596 = test system: NCI-H596
Procedure, shortened: as §1

ABC-1 = test system: ABC-1
Procedure, shortened: as §1

NCI-H727 = test system: NCI-H727
Procedure, shortened: as §1

NCI-H2087 = test system: NCI-H2087
Procedure, shortened: as §1

Work on `Clc1ccc(Nc2nnc(Cc3ccncc3)c3ccccc23)cc1` [Vatalanib] + N=C(N)NC(=N)NCCc1ccccc1 [Phenformin] (partner 250 µM) yielded a relative viability (NCI-H661; first compound 0.04 µM) of 0.32, a relative viability (NCI-H661; first compound 0.1265 µM) of 0.248 and a relative viability (NCI-H661; first compound 0.4 µM) of 0.304. For the same compound, the relative viability (NCI-H661; first compound 1.265 µM) was 0.267, the relative viability (NCI-H661; first compound 4 µM) was 0.286 and the relative viability (NCI-H650; first compound 0.04 µM) was 0.473. It also gave a relative viability (NCI-H650; first compound 0.1265 µM) of 0.427, a relative viability (NCI-H650; first compound 1.265 µM) of 0.446 and a relative viability (NCI-H650; first compound 4 µM) of 0.439. The relative viability (A-427; first compound 0.04 µM) was 0.427, the relative viability (A-427; first compound 0.1265 µM) was 0.295 and the relative viability (A-427; first compound 0.4 µM) was 0.285. The relative viability (A-427; first compound 1.265 µM) was 0.31, the relative viability (A-427; first compound 4 µM) was 0.298 and the relative viability (NCI-H1944; first compound 0.04 µM) was 0.221. The relative viability (NCI-H1944; first compound 0.1265 µM) was 0.198, the relative viability (NCI-H1944; first compound 0.4 µM) was 0.212 and the relative viability (NCI-H1944; first compound 1.265 µM) was 0.188. It also gave a relative viability (NCI-H1944; first compound 4 µM) of 0.19, a relative viability (LC-2-ad; first compound 0.04 µM) of 0.652 and a relative viability (LC-2-ad; first compound 0.1265 µM) of 0.553. For the same compound, the relative viability (LC-2-ad; first compound 1.265 µM) was 0.517, the relative viability (LC-2-ad; first compound 4 µM) was 0.55 and the relative viability (BEN; first compound 0.04 µM) was 0.29. It also gave a relative viability (BEN; first compound 0.1265 µM) of 0.233, a relative viability (BEN; first compound 0.4 µM) of 0.274 and a relative viability (BEN; first compound 1.265 µM) of 0.231. For the same compound, the relative viability (BEN; first compound 4 µM) was 0.306, the relative viability (HCC-15; first compound 0.04 µM) was 0.487 and the relative viability (HCC-15; first compound 0.1265 µM) was 0.46. The relative viability (HCC-15; first compound 0.4 µM) was 0.441, the relative viability (HCC-15; first compound 1.265 µM) was 0.443 and the relative viability (HCC-15; first compound 4 µM) was 0.457. It also gave a relative viability (NCI-H1650; first compound 0.04 µM) of 0.401, a relative viability (NCI-H1650; first compound 0.1265 µM) of 0.307 and a relative viability (NCI-H1650; first compound 0.4 µM) of 0.36. The relative viability (NCI-H1650; first compound 1.265 µM) was 0.364, the relative viability (NCI-H1650; first compound 4 µM) was 0.403 and the relative viability (NCI-H1915; first compound 0.04 µM) was 0.374. For the same compound, the relative viability (NCI-H1915; first compound 0.1265 µM) was 0.345, the relative viability (NCI-H1915; first compound 0.4 µM) was 0.399 and the relative viability (NCI-H1915; first compound 1.265 µM) was 0.38. The relative viability (NCI-H1915; first compound 4 µM) was 0.371, the relative viability (NCI-H1651; first compound 0.04 µM) was 0.342 and the relative viability (NCI-H1651; first compound 0.1265 µM) was 0.29. It also gave a relative viability (NCI-H1651; first compound 0.4 µM) of 0.311, a relative viability (NCI-H1651; first compound 1.265 µM) of 0.312 and a relative viability (NCI-H1651; first compound 4 µM) of 0.405. For the same compound, the relative viability (NCI-H1792; first compound 0.04 µM) was 0.257, the relative viability (NCI-H1792; first compound 0.4 µM) was 0.224 and the relative viability (NCI-H1792; first compound 1.265 µM) was 0.236. The relative viability (NCI-H1792; first compound 4 µM) was 0.386, the relative viability (201T; first compound 0.04 µM) was 0.436 and the relative viability (201T; first compound 0.1265 µM) was 0.451. For the same compound, the relative viability (201T; first compound 0.4 µM) was 0.437, the relative viability (201T; first compound 1.265 µM) was 0.405 and the relative viability (201T; first compound 4 µM) was 0.431. It also gave a relative viability (NCI-H460; first compound 0.04 µM) of 0.582, a relative viability (NCI-H460; first compound 0.1265 µM) of 0.539 and a relative viability (NCI-H460; first compound 0.4 µM) of 0.556. It also gave a relative viability (NCI-H460; first compound 1.265 µM) of 0.51, a relative viability (NCI-H460; first compound 4 µM) of 0.432 and a relative viability (H3255; first compound 0.04 µM) of 0.397. The relative viability (H3255; first compound 0.1265 µM) was 0.392, the relative viability (H3255; first compound 0.4 µM) was 0.316 and the relative viability (H3255; first compound 1.265 µM) was 0.368. It also gave a relative viability (H3255; first compound 4 µM) of 0.368, a relative viability (CAL-12T; first compound 0.04 µM) of 0.633 and a relative viability (CAL-12T; first compound 0.1265 µM) of 0.495. For the same compound, the relative viability (CAL-12T; first compound 0.4 µM) was 0.328, the relative viability (CAL-12T; first compound 1.265 µM) was 0.539 and the relative viability (CAL-12T; first compound 4 µM) was 0.567. It also gave a relative viability (NCI-H520; first compound 0.04 µM) of 0.722, a relative viability (NCI-H520; first compound 0.1265 µM) of 0.412 and a relative viability (NCI-H520; first compound 0.4 µM) of 0.83. The relative viability (NCI-H520; first compound 1.265 µM) was 0.493, the relative viability (NCI-H520; first compound 4 µM) was 0.479 and the relative viability (LCLC-97TM1; first compound 0.04 µM) was 0.417. The relative viability (LCLC-97TM1; first compound 0.1265 µM) was 0.388, the relative viability (LCLC-97TM1; first compound 0.4 µM) was 0.46 and the relative viability (LCLC-97TM1; first compound 1.265 µM) was 0.407. The relative viability (LCLC-97TM1; first compound 4 µM) was 0.396, the relative viability (NCI-H2023; first compound 0.04 µM) was 0.447 and the relative viability (NCI-H2023; first compound 0.1265 µM) was 0.397. For the same compound, the relative viability (NCI-H2023; first compound 0.4 µM) was 0.477, the relative viability (NCI-H2023; first compound 1.265 µM) was 0.376 and the relative viability (NCI-H2023; first compound 4 µM) was 0.341. It also gave a relative viability (NCI-H441; first compound 0.04 µM) of 0.904, a relative viability (NCI-H441; first compound 0.1265 µM) of 0.761 and a relative viability (NCI-H441; first compound 0.4 µM) of 0.849. The relative viability (NCI-H441; first compound 1.265 µM) was 0.729, the relative viability (NCI-H441; first compound 4 µM) was 0.819 and the relative viability (PC-3 [JPC-3]; first compound 0.04 µM) was 0.456. The relative viability (PC-3 [JPC-3]; first compound 0.1265 µM) was 0.465, the relative viability (PC-3 [JPC-3]; first compound 0.4 µM) was 0.456 and the relative viability (PC-3 [JPC-3]; first compound 1.265 µM) was 0.493. The relative viability (PC-3 [JPC-3]; first compound 4 µM) was 0.508, the relative viability (NCI-H596; first compound 0.04 µM) was 0.715 and the relative viability (NCI-H596; first compound 0.1265 µM) was 0.874. It also gave a relative viability (NCI-H596; first compound 0.4 µM) of 0.769, a relative viability (NCI-H596; first compound 1.265 µM) of 0.767 and a relative viability (NCI-H596; first compound 4 µM) of 0.662. It also gave a relative viability (ABC-1; first compound 0.04 µM) of 0.241, a relative viability (ABC-1; first compound 0.1265 µM) of 0.242 and a relative viability (ABC-1; first compound 1.265 µM) of 0.262. It also gave a relative viability (ABC-1; first compound 4 µM) of 0.222, a relative viability (NCI-H727; first compound 0.04 µM) of 0.531 and a relative viability (NCI-H727; first compound 0.1265 µM) of 0.572. For the same compound, the relative viability (NCI-H727; first compound 0.4 µM) was 0.519, the relative viability (NCI-H727; first compound 1.265 µM) was 0.558 and the relative viability (NCI-H727; first compound 4 µM) was 0.466. The relative viability (NCI-H2087; first compound 0.04 µM) was 0.484, the relative viability (NCI-H2087; first compound 0.1265 µM) was 0.404 and the relative viability (NCI-H2087; first compound 0.4 µM) was 0.428. For the same compound, the relative viability (NCI-H2087; first compound 1.265 µM) was 0.461 and the relative viability (NCI-H2087; first compound 4 µM) was 0.541.
